Earlier results, collected in publication PMC8236845.
Like-named read-outs stand apart in the source and are kept apart here. Numbered stars: 1 amine (or outer) side, 2 acyl side, 3 side chain; on linkers, the order of the positions; unused ones are H or OH. Bridge positions count the residues as written; N and C are the ends. Square brackets hold non-standard residues; d marks the D form. Peptide text beside a SMILES is read from it. * marks the point of attachment. pTerphenylCO(4''-OnC5H11) = CCCCCOc1ccc(-c2ccc(-c3ccc(C(=O)*)cc3)cc2)cc1; Orn(4R-OH,5R-OH) = O=C([C@H](C[C@@H](O)[C@@H](O)N[*:3])N[*:1])[*:2]; hTyr(3S-OH,4S-OH) = N[C@H](C(=O)O)[C@H](O)[C@@H](O)c1ccc(O)cc1; Pro(3S-OH,4S-Me) = C[C@H]1CN[C@H](C(=O)O)[C@H]1O; Hyp = O=C(O)[C@@H]1C[C@@H](O)CN1

What was measured:
[1] = human, in vivo, cited from earlier work
SARS-CoV-2 = settings: 2021, cited from earlier work
[2] = used in the context of chemotherapy, cited from earlier work
[3] = system: Middle Eastern Respiratory Syndroms (MERS) coronaviruses; settings: cited from earlier work
SARS-CoV-1 = settings: cited from earlier work
[4] = cited from earlier work
[5] = system: SARS-CoV-2-related Pangolin corona virus; settings: cited from earlier work
[6] = DOGS topical 24 mg/kg, ref Sarasola et al. (2002)

C[C@]12CC[C@@H]3c4ccc(OC(=O)c5ccccc5)cc4CC[C@H]3[C@@H]1CC[C@@H]2O [Estradiol benzoate]
C max ([1]; im, 5 mg): 0.75 ng/mL
Cmax ([1]; im, 5 mg): 2 nM
inhibition of SARS-COV-2 replication in culture (SARS-CoV-2; ref Yang et al.): reported to inhibit

CCCCCOc1ccc(-c2ccc(-c3ccc(C(=O)N[C@H]4C[C@@H](O)[C@@H](O)NC(=O)[C@@H]5[C@@H](O)[C@@H](C)CN5C(=O)[C@H]([C@@H](C)O)NC(=O)[C@H]([C@H](O)[C@@H](O)c5ccc(O)cc5)NC(=O)[C@@H]5C[C@@H](O)CN5C(=O)[C@H]([C@@H](C)O)NC4=O)cc3)cc2)cc1 [Anidulafungin] ({pTerphenylCO(4''-OnC5H11)}-[Orn(4R-OH,5R-OH)]T[Hyp][hTyr(3S-OH,4S-OH)]T[Pro(3S-OH,4S-Me)]; lactam 1-C)
C max (ng/ml) ([1]; iv): 2,500 ng/ml
Cmax ([1]; iv): 2200 nM

COc1cc([C@@H]2c3cc4c(cc3[C@H](O)[C@H]3COC(=O)[C@@H]23)OCO4)cc(OC)c1OC [Picropodophyllin]
side effects ([2]; ref Ekman et al., 2016): moderate to severe side effects
C max (ng/ml) ([1]; po, 520 mg): 207–1,035 ng/ml
Cmax ([1]; po, 520 mg): 500 to 2500 nM

Cc1ccc(NC(=O)c2ccc(CN3CCN(C)CC3)cc2)cc1Nc1nccc(-c2cccnc2)n1 [Imatinib]
inhibition of MERS coronavirus [3]: reported to inhibit
inhibition of SARS-CoV-1 (SARS-CoV-1): reported to inhibit
inhibition of SARS-CoV-2 in cell-culture-based studies (SARS-CoV-2; ref Cagno et al.): failed to inhibit

CC(=O)O[C@@]12CO[C@@H]1C[C@H](O)[C@@]1(C)C(=O)[C@H](O)C3=C(C)[C@@H](OC(=O)[C@H](O)[C@@H](NC(=O)OC(C)(C)C)c4ccccc4)C[C@@](O)([C@@H](OC(=O)c4ccccc4)[C@H]21)C3(C)C [Docetaxel]
side effects ([2]; ref Gustafson et al., 2003): moderate to severe side effects
C max ([1]; iv): 933 ng/mL
Cmax ([1]; iv): 1230 nM

CO[C@H]1C[C@H](O[C@@H]2/C(C)=C/C[C@@H]3C[C@@H](C[C@]4(CC[C@H](C)[C@@H](C5CCCCC5)O4)O3)OC(=O)[C@@H]3C=C(C)/C(=N/O)[C@H]4OC/C(=C\C=C\[C@@H]2C)[C@]43O)O[C@@H](C)[C@@H]1O [Selamectin]
Cmax ([4]; DOGS oral 24 mg/kg, ref Sarasola et al. (2002)): 9900 nM
C max [4, 6]: 86.5 ng/mL
Cmax [4, 6]: 110 nM
tolerability ([4]; oral, dogs, ref Sarasola et al., 2002): well tolerated
inhibition of cytopathic effect [5]: inhibited the cytopathic effect

CC[C@H](C)[C@@H]1NC(=O)[C@H](Cc2ccc(O)cc2)NC(=O)[C@@H](N)CSSC[C@@H](C(=O)N2CCC[C@H]2C(=O)N[C@@H](CC(C)C)C(=O)NCC(N)=O)NC(=O)[C@H](CC(N)=O)NC(=O)[C@H](CCC(N)=O)NC1=O [Oxytocin]
C max ([1]; inhaled or intranasal, 44 ug): 0.005 ng/mL
Cmax ([1]; inhaled or intranasal, 44 ug): 5 nM
C max ([1]; iv): 0.005 ng/mL
Cmax ([1]; iv): 5 nM

Cc1nc(Nc2ncc(C(=O)Nc3c(C)cccc3Cl)s2)cc(N2CCN(CCO)CC2)n1 [Dasatinib]
inhibition of MERS coronavirus [3]: reported to inhibit
inhibition of SARS-CoV-1 (SARS-CoV-1): reported to inhibit
inhibition of SARS-CoV-2 in cell-culture-based studies (SARS-CoV-2; ref Cagno et al.): failed to inhibit

Cc1cn(-c2cc(NC(=O)c3ccc(C)c(Nc4nccc(-c5cccnc5)n4)c3)cc(C(F)(F)F)c2)cn1 [Nilotinib AMN-107, Nilotinib]
C max (ng/ml) ([1]; po, 300 mg): 1,360 ng/ml
Cmax ([1]; po, 300 mg): 2570 nM
IC50 (SARS-CoV-2; ref Cagno et al., read-out: IC50 of inhibition of SARS-CoV-2 infection in vitro): 1.5 to 3 µM
